From EP0974353A2, “The use of homocysteine derivatives for the preparation of medicaments inhibiting bacterial adhesiveness” (EDMOND PHARMA S.R.L., priority 1998, dated 2000)
Entries after “also recorded” stand apart in the source; their conditions may differ.

Legend:
[1] = rank among the erdosteine metabolites; from R. Scuri et al.; cited from earlier work
[2] = tested on: E. coli strains, ATCC 25922 strain and two others isolated from human urinary infections; assay: Inhibition of bacterial adhesiveness to human buccal/palatal epithelial cells, E. coli; format: cell-based; details: three E. coli strains; for inhibitory activity on adhesiveness: even at the maximum tested concentration (10 mcg/ml)
Experimental: (§1) Said procedures consist in incubating the active substance with bacteria in order to interfere with their adhesiveness mechanism and subsequently adding mucosa cells, observing the obtained result.
(§2) Human epithelial cells were collected from buccal and palatal mucosa of healthy volunteers by a sterile spatula, subsequently immersed in 2 ml of physiological saline buffered with phosphate buffer, combining then the suspensions from different volunteers.
(§3) Tests were carried out with three different E. coli strains, ATCC 25922 strain and two others isolated from human urinary infections, as well as with three S. aureus strains, ATCC 25923 strain and two others from human respiratory infections, using concentrations of 1.25, 2.5, 5 and 10 mcg/ ml for each tested compound.

bacterial adhesiveness = assay: Inhibition of bacterial adhesiveness, bacterium not specified; format: cell-based; details: bacterium and concentration not given; general statement
Experimental: as §1, §2, §3

[3] = tested on: S. aureus strains, ATCC 25923 strain and two others from human respiratory infections; assay: Inhibition of bacterial adhesiveness to human buccal/palatal epithelial cells, S. aureus; format: cell-based
Experimental: as §1, §2, §3

## O=C(O)CSCC(=O)NC(CCS)C(=O)O (stereo not shown) [compound (A), N-(Thiodiglycoyl)homocysteine]
[1]
  mucolytic activity: lowest mucolytic activity
[2]; already at a concentration of 2.5 mcg/ml, compared with the control (bacteria with no tested compound)
  inhibitory activity of bacterial adhesiveness: significant inhibitory activity
Bacterial adhesiveness
  inhibition of bacterial adhesiveness: remarkable inhibitory activity
[3]; at concentrations of 2.5 to 10 mcg/ml
  reduction of S. aureus adhesiveness to epithelial cells: significant reduction

## CC(=O)N[C@@H](CCS)C(=O)O [N-acetylhomocysteine]
[2]
  inhibitory activity on adhesiveness: no inhibitory activity

## CC(=O)N[C@@H](CS)C(=O)O [N-acetylcysteine]
[2]
  inhibitory activity on adhesiveness: no inhibitory activity
Bacterial adhesiveness
  inhibition of bacterial adhesiveness: much less active, or even inactive
[3]; incubation with S. aureus, concentration not stated (tested 1.25, 2.5, 5 and 10 mcg/ml)
  activity in reducing bacterial adhesiveness: no specific activity

## N[C@@H](CCS)C(=O)O [homocysteine]
[2]; concentration not stated (tested 1.25, 2.5, 5 and 10 mcg/ml)
  inhibitory activity on adhesiveness, difference compared with the control test: some difference, which however was not statistically significant

## O=C(O)CSCC(=O)NC1CCSC1=O (stereo not shown) [erdosteine, N-(thiodiglycoyl)homocysteine gamma-thiolactone]
Bacterial adhesiveness
  inhibition of bacterial adhesiveness: not inhibited in a statistically significant way; also recorded: almost devoid of such an activity
